{"source": "patent US20240190880A1", "about": "(THE REGENTS OF THE UNIVERSITY OF MICHIGAN, priority 2021, published 2024)", "data": [{"biological_target": "T1, ER (Homo sapiens, UniProt P03372)", "T1 construct": "host or cells: T47D and MCF7 human breast cancer cells", "T1 sequence (P03372 1-595)": "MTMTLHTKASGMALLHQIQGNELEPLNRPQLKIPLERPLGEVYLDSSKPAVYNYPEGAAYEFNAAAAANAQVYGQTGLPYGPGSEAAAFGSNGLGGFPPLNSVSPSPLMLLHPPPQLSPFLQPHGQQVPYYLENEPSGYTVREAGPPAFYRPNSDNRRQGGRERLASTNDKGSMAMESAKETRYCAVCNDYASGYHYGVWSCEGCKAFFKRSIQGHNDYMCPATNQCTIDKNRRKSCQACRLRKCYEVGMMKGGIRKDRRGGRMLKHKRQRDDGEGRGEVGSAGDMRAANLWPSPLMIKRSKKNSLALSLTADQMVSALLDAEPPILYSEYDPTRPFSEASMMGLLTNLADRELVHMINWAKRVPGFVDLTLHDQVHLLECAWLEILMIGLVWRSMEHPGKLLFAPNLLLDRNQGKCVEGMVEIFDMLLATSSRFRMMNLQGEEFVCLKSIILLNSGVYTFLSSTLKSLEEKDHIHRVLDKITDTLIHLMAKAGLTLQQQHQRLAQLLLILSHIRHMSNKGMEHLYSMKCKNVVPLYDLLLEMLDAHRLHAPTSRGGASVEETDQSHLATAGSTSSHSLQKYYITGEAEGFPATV", "assay": "ER degradation activity, in-cell western blot analysis in T47D cells", "format": "cell-based", "settings": "compounds 16 hours, Table A does not say whether T47D or MCF7, read-out: Potency (DC50)", "method_in_brief": "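Cells were seeded overnight, exposed to diluted compounds for 16 hours, then stained with primary antibodies and with infrared-labelled secondary antibodies (1:1000, 1 h RT). Plates were scanned on a CLX reader, and ER levels were normalised to DMSO-treated wells.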", "units": {"DC50": "nM"}, "values": [{"smiles": "C[C@@H]1Cc2c([nH]c3ccccc23)[C@@H](c2ccc(C3=CCC(C(=O)N4CCC(N5Cc6cc7c(cc6C5)C(=O)N(C5CCC(=O)NC5=O)C7=O)CC4)CC3)cc2F)N1CC1(F)CC1", "note": "(stereo partly drawn) [E 486, 2-(2,6-dioxopiperidin-3-yl)-6-(1-(3′-fluoro-4′-((1R,3R)-2-((1-fluorocyclopropyl)methyl)-3-methyl-2,3,4,9-tetrahydro-1H-pyrido[3,4-b]indol-1-yl)-2,3,4,5-tetrahydro-[1,1′-biphenyl]-4-carbonyl)piperidin-4-yl)-6,7-dihydropyrrolo[3,4-f]isoindole-1,3(2H,5H)-dione]", "DC50": "> 100"}, {"smiles": "C[C@@H]1Cc2cc(O)ccc2[C@@H](c2c(F)cc(C3CCC(C(=O)N4CCC(N5Cc6cc7c(cc6C5)C(=O)N(C5CCC(=O)NC5=O)C7=O)CC4)CC3)cc2F)N1CC(F)F", "note": "(stereo partly drawn) [E 487, 6-(1-(4-(4-((1S,3R)-2-(2,2-difluoroethyl)-6-hydroxy-3-methyl-1,2,3,4-tetrahydroisoquinolin-1-yl)-3,5-difluorophenyl)cyclohexane-1-carbonyl)piperidin-4-yl)-2-(2,6-dioxopiperidin-3-yl)-6,7-dihydropyrrolo[3,4-f]isoindole-1,3(2H,5H)-dione]", "DC50": "10 to 100"}, {"smiles": "O=C1CCC(N2C(=O)c3cc4c(cc3C2=O)CN(CC(=O)N2CCC(Oc3ccc([C@@H]5c6ccc(O)cc6CC[C@@H]5c5ccccc5)cc3)CC2)C4)C(=O)N1", "note": "(stereo partly drawn) [E 489, 2-(2,6-dioxopiperidin-3-yl)-6-(2-(4-(4-((1R,2S)-6-hydroxy-2-phenyl-1,2,3,4-tetrahydronaphthalen-1-yl)phenoxy)piperidin-1-yl)-2-oxoethyl)-6,7-dihydropyrrolo[3,4-f]isoindole-1,3(2H,5H)-dione]", "DC50": "10 to 100"}, {"smiles": "O=C1CCC(N2C(=O)c3cc4c(cc3C2=O)CN(CC2CCC3(CC2)CCN(C(=O)c2ccc([C@@H]5c6ccc(O)cc6CC[C@@H]5c5ccccc5)cc2)CC3)C4)C(=O)N1", "note": "(stereo partly drawn) [E 492, 2-(2,6-dioxopiperidin-3-yl)-6-((3-(4-((1R,2S)-6-hydroxy-2-phenyl-1,2,3,4-tetrahydronaphthalen-1-yl)benzoyl)-3-azaspiro[5.5]undecan-9-yl)methyl)-6,7-dihydropyrrolo[3,4-f]isoindole-1,3(2H,5H)-dione]", "DC50": "> 100"}, {"smiles": "O=C1CCC(N2C(=O)c3cc4c(cc3C2=O)CN(CC2CCC3(CC2)CN(C(=O)c2ccc([C@@H]5c6ccc(O)cc6CC[C@@H]5c5ccccc5)cc2)C3)C4)C(=O)N1", "note": "(stereo partly drawn) [E 493, 2-(2,6-dioxopiperidin-3-yl)-6-((2-(4-((1R,2S)-6-hydroxy-2-phenyl-1,2,3,4-tetrahydronaphthalen-1-yl)benzoyl)-2-azaspiro[3.5]nonan-7-yl)methyl)-6,7-dihydropyrrolo[3,4-f]isoindole-1,3(2H,5H)-dione]", "DC50": "> 100"}, {"smiles": "O=C1CCC(N2C(=O)c3cc4c(cc3C2=O)CN(CC2CC3(CCN(C(=O)c5ccc([C@@H]6c7ccc(O)cc7CC[C@@H]6c6ccccc6)cc5)CC3)C2)C4)C(=O)N1", "note": "(stereo partly drawn) [E 494, 2-(2,6-dioxopiperidin-3-yl)-6-((7-(4-((1R,2S)-6-hydroxy-2-phenyl-1,2,3,4-tetrahydronaphthalen-1-yl)benzoyl)-7-azaspiro[3.5]nonan-2-yl)methyl)-6,7-dihydropyrrolo[3,4-f]isoindole-1,3(2H,5H)-dione]", "DC50": "> 100"}, {"smiles": "O=C1CCC(N2C(=O)c3cc4c(cc3C2=O)CN(CC(=O)N2CCC3(CC2)CCN(C(=O)c2ccc([C@@H]5c6ccc(O)cc6CC[C@@H]5c5ccccc5)cc2)CC3)C4)C(=O)N1", "note": "(stereo partly drawn) [E 495, 2-(2,6-dioxopiperidin-3-yl)-6-(2-(9-(4-((1R,2S)-6-hydroxy-2-phenyl-1,2,3,4-tetrahydronaphthalen-1-yl)benzoyl)-3,9-diazaspiro[5.5]undecan-3-yl)-2-oxoethyl)-6,7-dihydropyrrolo[3,4-f]isoindole-1,3(2H,5H)-dione]", "DC50": "> 100"}, {"smiles": "O=C1CCC(N2C(=O)c3cc4c(cc3C2=O)CN(CC(=O)N2CCC3(CC2)CN(C(=O)c2ccc([C@@H]5c6ccc(O)cc6CC[C@@H]5c5ccccc5)cc2)C3)C4)C(=O)N1", "note": "(stereo partly drawn) [E 496, 2-(2,6-dioxopiperidin-3-yl)-6-(2-(2-(4-((1R,2S)-6-hydroxy-2-phenyl-1,2,3,4-tetrahydronaphthalen-1-yl)benzoyl)-2,7-diazaspiro[3.5]nonan-7-yl)-2-oxoethyl)-6,7-dihydropyrrolo[3,4-f]isoindole-1,3(2H,5H)-dione]", "DC50": "> 100"}, {"smiles": "O=C1CCC(N2C(=O)c3cc4c(cc3C2=O)CN(C2CC3CCC(C2)N3CC2CCN(c3ccc([C@@H]5c6ccc(O)cc6CC[C@@H]5c5ccccc5)cc3)CC2)C4)C(=O)N1", "note": "(stereo partly drawn) [E 497, 2-(2,6-dioxopiperidin-3-yl)-6-(8-((1-(4-((1R,2S)-6-hydroxy-2-phenyl-1,2,3,4-tetrahydronaphthalen-1-yl)phenyl)piperidin-4-yl)methyl)-8-azabicyclo[3.2.1]octan-3-yl)-6,7-dihydropyrrolo[3,4-f]isoindole-1,3(2H,5H)-dione]", "DC50": "> 100"}, {"smiles": "O=C1CCC(N2C(=O)c3cc4c(cc3C2=O)CC2(C4)CN(CC3CCN(c4ccc([C@@H]5c6ccc(O)cc6CC[C@@H]5c5ccccc5)cc4)CC3)C2)C(=O)N1", "note": "(stereo partly drawn) [E 500, 2′-(2,6-dioxopiperidin-3-yl)-1-((1-(4-((1R,2S)-6-hydroxy-2-phenyl-1,2,3,4-tetrahydronaphthalen-1-yl)phenyl)piperidin-4-yl)methyl)-5′,7′-dihydro-1′H-spiro[azetidine-3,6′-cyclopenta[f]isoindole]-1′,3′(2′H)-dione]", "DC50": "> 100"}, {"smiles": "O=C1CCC(N2C(=O)c3cc4c(cc3C2=O)CC2(C4)CN(C(=O)C3CCN(c4ccc([C@@H]5c6ccc(O)cc6CC[C@@H]5c5ccccc5)cc4)CC3)C2)C(=O)N1", "note": "(stereo partly drawn) [E 501, 2′-(2,6-dioxopiperidin-3-yl)-1-(1-(4-((1R,2S)-6-hydroxy-2-phenyl-1,2,3,4-tetrahydronaphthalen-1-yl)phenyl)piperidine-4-carbonyl)-5′,7′-dihydro-1′H-spiro[azetidine-3,6′-cyclopenta[f]isoindole]-1′,3′(2′H)-dione]", "DC50": "> 100"}, {"smiles": "O=C1CCC(N2C(=O)c3cc4c(cc3C2=O)CC2(C4)CN(C(=O)CN3CC(Oc4ccc([C@@H]5c6ccc(O)cc6CC[C@@H]5c5ccccc5)cc4)C3)C2)C(=O)N1", "note": "(stereo partly drawn) [E 502, 2′-(2,6-dioxopiperidin-3-yl)-1-(2-(3-(4-((1R,2S)-6-hydroxy-2-phenyl-1,2,3,4-tetrahydronaphthalen-1-yl)phenoxy)azetidin-1-yl)acetyl)-5′,7′-dihydro-1′H-spiro[azetidine-3,6′-cyclopenta[f]isoindole]-1′,3′(2′H)-dione]", "DC50": "> 100"}, {"smiles": "O=C1CCC(N2C(=O)c3cc4c(cc3C2=O)CC2(C4)CN(CC(=O)N3CC(Oc4ccc([C@@H]5c6ccc(O)cc6CC[C@@H]5c5ccccc5)cc4)C3)C2)C(=O)N1", "note": "(stereo partly drawn) [E 503, 2′-(2,6-dioxopiperidin-3-yl)-1-(2-(3-(4-((1R,2S)-6-hydroxy-2-phenyl-1,2,3,4-tetrahydronaphthalen-1-yl)phenoxy)azetidin-1-yl)-2-oxoethyl)-5′,7′-dihydro-1′H-spiro[azetidine-3,6′-cyclopenta[f]isoindole]-1′,3′(2′H)-dione]", "DC50": "> 100"}, {"smiles": "O=C1CCC(N2Cc3cc4c(cc3C2=O)CN(CC2CN(CC3CCN(c5ccc([C@@H]6c7ccc(O)cc7CC[C@@H]6c6ccccc6)cc5)CC3)C2)C4=O)C(=O)N1", "note": "(stereo partly drawn) [E 504, 2-(2,6-dioxopiperidin-3-yl)-6-((1-((1-(4-((1R,2S)-6-hydroxy-2-phenyl-1,2,3,4-tetrahydronaphthalen-1-yl)phenyl)piperidin-4-yl)methyl)azetidin-3-yl)methyl)-2,3,6,7-tetrahydropyrrolo[3,4-f]isoindole-1,5-dione]", "DC50": "> 100"}, {"smiles": "O=C1CCC(N2Cc3cc4c(cc3C2=O)CN(C2CN(CC3CCN(c5ccc([C@@H]6c7ccc(O)cc7CC[C@@H]6c6ccccc6)cc5)CC3)C2)C4=O)C(=O)N1", "note": "(stereo partly drawn) [E 505, 2-(2,6-dioxopiperidin-3-yl)-6-(1-((1-(4-((1R,2S)-6-hydroxy-2-phenyl-1,2,3,4-tetrahydronaphthalen-1-yl)phenyl)piperidin-4-yl)methyl)azetidin-3-yl)-2,3,6,7-tetrahydropyrrolo[3,4-f]isoindole-1,5-dione]", "DC50": "> 100"}, {"smiles": "O=C1CCC(N2Cc3cc4c(cc3C2=O)CN(C2CCN(CC3CCN(c5ccc([C@@H]6c7ccc(O)cc7CC[C@@H]6c6ccccc6)cc5)CC3)CC2)C4=O)C(=O)N1", "note": "(stereo partly drawn) [E 506, 2-(2,6-dioxopiperidin-3-yl)-6-(1-((1-(4-((1R,2S)-6-hydroxy-2-phenyl-1,2,3,4-tetrahydronaphthalen-1-yl)phenyl)piperidin-4-yl)methyl)piperidin-4-yl)-2,3,6,7-tetrahydropyrrolo[3,4-f]isoindole-1,5-dione]", "DC50": "> 100"}, {"smiles": "O=C1CCC(N2Cc3cc4c(cc3C2=O)C(=O)N(C2CCN(CC3CCN(c5ccc([C@@H]6c7ccc(O)cc7CC[C@@H]6c6ccccc6)cc5)CC3)CC2)C4)C(=O)N1", "note": "(stereo partly drawn) [E 507, 2-(2,6-dioxopiperidin-3-yl)-6-(1-((1-(4-((1R,2S)-6-hydroxy-2-phenyl-1,2,3,4-tetrahydronaphthalen-1-yl)phenyl)piperidin-4-yl)methyl)piperidin-4-yl)-2,3,5,6-tetrahydropyrrolo[3,4-f]isoindole-1,7-dione]", "DC50": "> 100"}]}]}
